These are literature values, as cited in patent US10980792B2, “Formulations of Cabozantinib” (Zhuhai Beihai Biotech Co., Ltd., priority 2016, dated 2021).

The structures appear in SMILES notation.

`COc1cc2nccc(Oc3ccc(NC(=O)C4(C(=O)Nc5ccc(F)cc5)CC4)cc3)c2cc1OC` [Cabozantinib, cabozantinib]: the solubility in water entry is on record as “practically insoluble”. In addition, the “protein bound in human plasma” value with human plasma was no less than 99.7%.
